13 compounds from ChEMBL document CHEMBL1781881, “Adenosine-derived inhibitors of 78 kDa glucose regulated protein (Grp78) ATPase: insights into isoform selectivity” (J Med Chem, 2011) can be followed below.

Bounds are passed on as bounds.

Assay [1] is described as follows: Inhibition of HSP70 by fluorescence polarization assay. (Fluorescence polarisation rises when a labelled molecule tumbles more slowly, as on binding a larger partner.)
For assay [2], the system named is HCT-116. The assay is described as follows: Antiproliferative activity against human HCT116 cells. The format is functional.

One may read the Ki as the equilibrium dissociation constant of an inhibitor or competing ligand from its target. As usually defined, the GI50 is the concentration giving 50% growth inhibition. Higher therefore signals less potent growth inhibition.

On to `Nc1ncnc2c1nc(NCc1ccc3ccccc3n1)n2[C@@H]1O[C@H](CO)[C@@H](O)[C@H]1O`, for which affinity in assay [1] was put at a Ki of 4.32 µM.
The same measure, in the same setting: for `CNc1nc2c(N)ncnc2n1[C@@H]1O[C@H](COCc2ccccc2)[C@@H](O)[C@H]1O` the value was 1.1 µM.
On the same count and under the same terms, then `CNc1nc2c(N)ncnc2n1[C@@H]1O[C@H](COCC2CCCCC2)[C@@H](O)[C@H]1O`, with 4.07 µM.
Same read-out and setting: then `CNc1nc2c(N)ncnc2n1[C@@H]1O[C@H](COCc2cccnc2)[C@@H](O)[C@H]1O`, with 0.45 µM.
As for `CNc1nc2c(N)ncnc2n1[C@@H]1O[C@H](CO)[C@@H](O)[C@H]1O`, affinity in assay [1] was put at a Ki of 8.3 µM.
Turning to `N#Cc1ccc(COC[C@H]2O[C@@H](n3c(NCc4ccc5ncccc5c4)nc4c(N)ncnc43)[C@H](O)[C@@H]2O)cc1`, the GI50 in assay [2] was greater than 80 µM. The compound also yielded a Ki in assay [1] of 0.31 µM.
Taken in the same sequence, the figures for `N#Cc1ccc(COC[C@H]2O[C@@H](n3c(NCc4ccc(Cl)c(Cl)c4)nc4c(N)ncnc43)[C@H](O)[C@@H]2O)cc1` were 5 µM and 0.12 µM.
`COC[C@H]1O[C@@H](n2c(NCc3ccc(Cl)c(Cl)c3)nc3c(N)ncnc32)[C@H](O)[C@@H]1O` showed a Ki in assay [1] of 1.44 µM.
The compound `Nc1ncnc2c1nc(NCc1ccc3ncccc3c1)n2[C@@H]1O[C@H](CO)[C@@H](O)[C@H]1O` showed a GI50 in assay [2] greater than 80 µM. The compound also registered a Ki in assay [1] of 1.29 µM.
Taken in the same sequence, the figures for `Nc1ncnc2c1nc(N)n2[C@@H]1O[C@H](CO)[C@@H](O)[C@H]1O` were 0.05 µM and 4.46 µM.
For the compound `Nc1ncnc2c1nc(NCc1ccc(Cl)c(Cl)c1)n2[C@@H]1O[C@H](CO)[C@@H](O)[C@H]1O`, halving of growth in assay [2] (GI50) required 26 µM. Moreover, in assay [1], affinity was put at a Ki of 4.31 µM.
For the compound `Nc1ncnc2c1nc(NCc1ccc(Cl)c(Cl)c1)n2[C@@H]1O[C@H](COCc2ccccc2)[C@@H](O)[C@H]1O`, the Ki in assay [1] worked out at 1.05 µM.
Same read-out and setting: then `Nc1ncnc2c1ncn2[C@@H]1O[C@H](COP(=O)(O)OP(=O)(O)O)[C@@H](O)[C@H]1O` [ADENOSINE DIPHOSPHATE], with 0.11 µM.
